# Data: ChEMBL document CHEMBL3885881, “DrugMatrix”
# Organism: Rattus norvegicus
# Test: DrugMatrix - Regimen: Daily Repeat
# Assay type: toxicity, organism-based, Sprague-Dawley
# Design: regimen Daily Repeat, gender Male, age 6-8 weeks
# Details: in vivo, po, 34 mg/kg, route oral GAVAGE, dose level Low, vehicle .5 % CMC; for ABSOLUTE BASOPHIL / ABSOLUTE EOSINOPHIL / ABSOLUTE LYMPHOCYTE / ABSOLUTE MONOCYTE / ABSOLUTE SEGMENTED NEUTROPHIL / BASOPHIL / EOSINOPHIL / ERYTHROCYTE COUNT / HEMATOCRIT / HEMOGLOBIN / LEUKOCYTE COUNT / LYMPHOCYTE / MEAN CORPUSCULAR HEMOGLOBIN / MEAN CORPUSCULAR HEMOGLOBIN CONCENTRATION / MEAN CORPUSCULAR VOLUME / MONOCYTE / NEUTROPHIL / NUCLEATED RED BLOOD CELLS / PLATELET COUNT: tissue Blood; for ALANINE AMINOTRANSFERASE / ALBUMIN / ALKALINE PHOSPHATASE / ASPARTATE AMINOTRANSFERASE / BLOOD UREA NITROGEN / CARBON DIOXIDE / CHLORIDE / CHOLESTEROL / CREATINE PHOSPHOKINASE / CREATININE / GLUCOSE / LACTATE DEHYDROGENASE / LIPASE / PHOSPHORUS / POTASSIUM / SODIUM / TOTAL BILIRUBIN / TOTAL PROTEIN / URIC ACID: tissue Plasma
structure (smiles),measurement,setting,value
NS(=O)(=O)c1cc(C(=O)O)c(NCc2ccco2)cc1Cl [FUROSEMIDE],ABSOLUTE BASOPHIL,"72 h, time 3 day",0 CELLS/uL
same,ABSOLUTE EOSINOPHIL,"72 h, time 3 day",0 CELLS/uL
same,ABSOLUTE LYMPHOCYTE,"72 h, time 3 day",13709 CELLS/uL
same,ABSOLUTE MONOCYTE,"72 h, time 3 day",86 CELLS/uL
same,ABSOLUTE SEGMENTED NEUTROPHIL,"72 h, time 3 day",1038.33 CELLS/uL
same,BASOPHIL,"72 h, time 3 day",0%
same,EOSINOPHIL,"72 h, time 3 day",0%
same,ERYTHROCYTE COUNT,"72 h, time 3 day",5.45 x10E6/uL
same,HEMATOCRIT,"72 h, time 3 day",33.7%
same,HEMOGLOBIN,"72 h, time 3 day",13.47 G/DL
same,LEUKOCYTE COUNT,"72 h, time 3 day",14.83 x10E3/uL
same,LYMPHOCYTE,"72 h, time 3 day",92.33%
same,MEAN CORPUSCULAR HEMOGLOBIN,"72 h, time 3 day",24.7 pg
same,MEAN CORPUSCULAR HEMOGLOBIN CONCENTRATION,"72 h, time 3 day",39.97 G/DL
same,MEAN CORPUSCULAR VOLUME,"72 h, time 3 day",61.87 fL
same,MONOCYTE,"72 h, time 3 day",0.67%
same,NEUTROPHIL,"72 h, time 3 day",7%
same,NUCLEATED RED BLOOD CELLS,"72 h, time 3 day",0 /100WBC
same,PLATELET COUNT,"72 h, time 3 day",1150 x10E3/uL
same,ALANINE AMINOTRANSFERASE,"72 h, time 3 day",50.33 u/L
same,ALBUMIN,"72 h, time 3 day",4.17 G/DL
same,ALKALINE PHOSPHATASE,"72 h, time 3 day",404.33 u/L
same,ASPARTATE AMINOTRANSFERASE,"72 h, time 3 day",82.67 u/L
same,BLOOD UREA NITROGEN,"72 h, time 3 day",16 mg/dL
same,CARBON DIOXIDE,"72 h, time 3 day",29.33 mmol/L
same,CHLORIDE,"72 h, time 3 day",99 MEQ/L
same,CHOLESTEROL,"72 h, time 3 day",46.33 mg/dL
same,CREATINE PHOSPHOKINASE,"72 h, time 3 day",391.33 u/L
same,CREATININE,"72 h, time 3 day",0.19 mg/dL
same,GLUCOSE,"72 h, time 3 day",138.67 mg/dL
same,LACTATE DEHYDROGENASE,"72 h, time 3 day",200.67 u/L
same,LIPASE,"72 h, time 3 day",9 u/L
same,PHOSPHORUS,"72 h, time 3 day",10.7 mg/dL
same,POTASSIUM,"72 h, time 3 day",6.62 MEQ/L
same,SODIUM,"72 h, time 3 day",143.97 MEQ/L
same,TOTAL BILIRUBIN,"72 h, time 3 day",0.33 mg/dL
same,TOTAL PROTEIN,"72 h, time 3 day",5.77 G/DL
same,URIC ACID,"72 h, time 3 day",1.33 mg/dL
same,ABSOLUTE BASOPHIL,"120 h, time 5 day",0 CELLS/uL
same,ABSOLUTE EOSINOPHIL,"120 h, time 5 day",0 CELLS/uL
same,ABSOLUTE LYMPHOCYTE,"120 h, time 5 day",14118 CELLS/uL
same,ABSOLUTE MONOCYTE,"120 h, time 5 day",111.33 CELLS/uL
same,ABSOLUTE SEGMENTED NEUTROPHIL,"120 h, time 5 day",770.67 CELLS/uL
same,BASOPHIL,"120 h, time 5 day",0%
same,EOSINOPHIL,"120 h, time 5 day",0%
same,ERYTHROCYTE COUNT,"120 h, time 5 day",5.69 x10E6/uL
same,HEMATOCRIT,"120 h, time 5 day",36.23%
same,HEMOGLOBIN,"120 h, time 5 day",14 G/DL
same,LEUKOCYTE COUNT,"120 h, time 5 day",15 x10E3/uL
same,LYMPHOCYTE,"120 h, time 5 day",94%
same,MEAN CORPUSCULAR HEMOGLOBIN,"120 h, time 5 day",24.6 pg
same,MEAN CORPUSCULAR HEMOGLOBIN CONCENTRATION,"120 h, time 5 day",38.73 G/DL
same,MEAN CORPUSCULAR VOLUME,"120 h, time 5 day",63.7 fL
same,MONOCYTE,"120 h, time 5 day",0.67%
same,NEUTROPHIL,"120 h, time 5 day",5.33%
same,NUCLEATED RED BLOOD CELLS,"120 h, time 5 day",0.33 /100WBC
same,PLATELET COUNT,"120 h, time 5 day",1289.67 x10E3/uL
same,ALANINE AMINOTRANSFERASE,"120 h, time 5 day",54.33 u/L
same,ALBUMIN,"120 h, time 5 day",4.37 G/DL
same,ALKALINE PHOSPHATASE,"120 h, time 5 day",439.33 u/L
same,ASPARTATE AMINOTRANSFERASE,"120 h, time 5 day",88 u/L
same,BLOOD UREA NITROGEN,"120 h, time 5 day",23 mg/dL
same,CARBON DIOXIDE,"120 h, time 5 day",27 mmol/L
same,CHLORIDE,"120 h, time 5 day",100.33 MEQ/L
same,CHOLESTEROL,"120 h, time 5 day",42.67 mg/dL
same,CREATINE PHOSPHOKINASE,"120 h, time 5 day",236.67 u/L
same,CREATININE,"120 h, time 5 day",0.22 mg/dL
same,GLUCOSE,"120 h, time 5 day",162.33 mg/dL
same,LACTATE DEHYDROGENASE,"120 h, time 5 day",196.67 u/L
same,LIPASE,"120 h, time 5 day",8.67 u/L
same,PHOSPHORUS,"120 h, time 5 day",11.1 mg/dL
same,POTASSIUM,"120 h, time 5 day",6.53 MEQ/L
same,SODIUM,"120 h, time 5 day",144.3 MEQ/L
same,TOTAL BILIRUBIN,"120 h, time 5 day",0.2 mg/dL
same,TOTAL PROTEIN,"120 h, time 5 day",6.13 G/DL
same,URIC ACID,"120 h, time 5 day",1.67 mg/dL
